Patent US4618678A, “4-(2,3-dichloro-6-fluorophenyl)-1,4,5,6,7,8-hexahyd ro-2-methyl-5-oxo-1,7-naphthyridine-3-carboxylic acid 2-(2,3-dichlorophenoxy)ethyl ester” (American Home Products Corporation, priority 1985, dated 1986)

What was measured:
[1] = system: spontaneously hypertensive rats; assay: Hypotensive effect on systolic blood pressure of spontaneously hypertensive rats; assay type: in vivo, rat; conditions: SHR, oral, 10 mg/kg, at 1.5 hours
[2] = system: arterial actin-myosin interactions; assay: Inhibition of superprecipitation (antagonism of arterial actin-myosin interaction); assay type: biochemical; conditions: for Antag. of Actin-Myosin (percent inhibition of superprecipitation): six minute time-point; for antagonism of arterial actin-myosin interactions (in words): 'unlike' = does not antagonize as the compounds of the invention do
Experimental: (§1) The data reported herein was obtained at a six minute time-point rather than the 1.5, 5 and 12 minute time points indicated in the superprecipitation assay of the Silver et al. paper.
(§2) The following examples illustrate the preparation of a representative number of compounds of this invention. After each example, the Ca^+2 antagonist activity of the compound is presented in terms of percent relaxation of aortic tissue (P.R.) at 10^-5 M concentration. […] Inhibition of superprecipitation (Antag. of Actin-Myosin interaction) is expressed as percent inhibition (mean±standard error of the mean for at least 3 separate experiments) at a compound concentration. In the same manner, inhibition of myosin light chain phosphorylation (Antag. of MLCP) is expressed as a percent inhibition at a compound concentration. Similarly, the antihypertensive activity is reported in terms of millimeters mercury (mmHg) systolic blood pressure (B.P.) reduction at the stated time post 50 mg/kg oral dosing or other dosing as indicated.

[3] = system: Ca^+2 -calmodulin dependent myosin light chain phosphorylation; assay: Inhibition of Ca+2-calmodulin dependent myosin light chain phosphorylation (MLCP); assay type: biochemical; conditions: 'unlike' = does not antagonize as the compounds of the invention do
Experimental: as §1, §2

[4] = system: isolated paced intact rabbit atria; assay: Cardiac depressant (negative inotropic) effect in isolated paced intact rabbit atria; assay type: cell-based; conditions: 3 Hz, 30° C.
Experimental: The potential for detrimental cardiac depressant (negative inotropic) effects of the compounds of this invention was assessed in isolated paced intact rabbit atria. Left and right atria (with nodal tissue excised) were suspended vertically in a jacketed (30° C.) organ bath containing 50 ml of PSS and aerated with 95% O2 /5% CO2. Muscles (N=5-9/compound) were stimulated at a frequency of 3 Hz with a WPI stimulator for a 60 minute equilibration period. Changes in isometric force were recorded as described for the aoritc smooth muscle experiments,supra. Following equilibration, the test compound (or as a control, the ethanol vehicle) was added to the organ bath in a cumulative manner from doses ranging from 10^-9 M to 10^-5 M (10^-5 M was the maximum dose which could be attained due to the depressant effect of ethanol) and effects on developed isometric force were determined. […]
The following examples illustrate the preparation of a representative number of compounds of this invention. […] Inhibition of superprecipitation (Antag. of Actin-Myosin interaction) is expressed as percent inhibition (mean±standard error of the mean for at least 3 separate experiments) at a compound concentration. In the same manner, inhibition of myosin light chain phosphorylation (Antag. of MLCP) is expressed as a percent inhibition at a compound concentration. […]

Compound | B.P. (systolic blood pressure reduction) [1] [mm] | Antag. of Actin-Myosin (percent inhibition of superprecipitation) ([2]; 100 μM) [%] | antagonism of arterial actin-myosin interactions (in words) [2] | antagonism of Ca^+2 -calmodulin dependent myosin light chain phosphorylation (in words) [3] | IC25 (concentration producing 25% inhibition of isometric force) [4] [µM] | Antag. of Actin-Myosin (percent inhibition of superprecipitation) ([2]; 50 μM) [%]
CC1=C(C(=O)OCCOc2ccccc2)C(c2c(F)c(F)c(F)c(F)c2F)C2=C(CNCC2=O)N1 (racemic) [Example 2, 1,4,5,6,7,8-Hexahydro-2-methyl-5-oxo-4-(pentafluorophenyl)-1,7-naphthyridine-3-carboxylic acid 2-phenoxyethyl ester] | 39 | 72±2 | – | – | – | –
COc1ccc(CCN(C)CCCC(C#N)(c2ccc(OC)c(OC)c2)C(C)C)cc1OC (centres unmarked) [Verapamil, reference compound] | – | – | unlike | unlike | – | –
COC(=O)C1=C(C)NC(C)=C(C(=O)OC)C1c1ccccc1[N+](=O)[O-] [nifedipine, reference compound] | – | – | unlike | unlike | – | –
CC1=C(C(=O)OCCOc2ccccc2)C(c2c(F)c(F)c(F)c(F)c2F)C2=C(CNCC2=O)N1 (single isomer, unassigned; (-)) [Example 3, (-)-1,4,5,6,7,8-Hexahydro-2-methyl-5-oxo-4-(pentafluorophenyl)-1,7-naphthyridine-3-carboxylic acid 2-phenoxyethyl ester] | – | 76 | – | – | > 10 | 65
CC1=C(C(=O)OCCOc2ccccc2)C(c2c(F)c(F)c(F)c(F)c2F)C2=C(CNCC2=O)N1 (single isomer, unassigned; (+)) [Example 4, (+)-1,4,5,6,7,8-Hexahydro-2-methyl-5-oxo-4-(pentafluorophenyl)-1,7-naphthyridine-3-carboxylic acid 2-phenoxyethyl ester] | – | 71 | – | – | 0.8 | 38
CCOC(=O)C1=C(C)NC(C)=C(C(=O)OC)C1c1cccc([N+](=O)[O-])c1 (centres unmarked) [nitrendipine, reference compound] | – | – | unlike | unlike | – | –
